Measurements: US10952992B2, “Methods of treating intraocular pressure with activators of Tie-2” (Aerpio Pharmaceuticals, Inc., priority 2015, dated 2021)
“And” between values parts separate entries of the source, which are not always exact repeats. Identical values can stand only once. Counter-ions that a name gives are not always drawn.

Columns and labels:
[1] = Example 2 aqueous humor concentrations; format: in vivo, male New Zealand White rabbits; details: for Average Peak Concentration, Aqueous Humor: solution
Description: (§1) To measure the concentration of Compound 1 in plasma and ocular tissues following topical ocular, subcutaneous, and intravitreal administration, New Zealand White rabbits were administered Compound 1, and plasma and ocular samples were collected at pre-determined time points. Compound 1 formulations were prepared fresh on each day of dosing.
(§2) Ocular tissue samples from both eyes of each animal were collected and weights were recorded. Plasma and ocular tissue sample concentrations of Compound 1 were determined by LC-MS/MS.
(§3) Animals were anesthetized for ocular (topical) and intravitreal dosing following the 12IA7 IACUC protocol. Each rabbit received a bolus dose of test formulation either via topical ocular administration 3 times daily on Days 1 and 2 (at 0, 6, and 12 hours), and once on Day 3 (at 0 hours) into both eyes; via intravitreal administration into both eyes once on Day 1 (at 0 hours); or via subcutaneous administration 2 times daily on Days 1 and 2 (at 0 and 8 hours) and once daily on Day 3 (at 0 hours). Doses were given within an approximately 1 hour window each day where applicable.
On Day 1, for intravitreal administration, or on Day 3, for topical ocular and subcutaneous administration, at the appropriate ocular tissue collection time points, animals were euthanized and both eyes were enucleated immediately. Following enucleation, each eye was rinsed with phosphate-buffered saline. Ocular tissue samples from both eyes of each animal were collected at predetermined time points and weights were recorded. All the samples were frozen immediately on dry ice, and stored at −60° C. to −80° C. pending bioanalysis.
(§4) An LC-MS/MS method was developed for the determination of Compound 1 in rabbit aqueous tissues (plasma, aqueous and vitreous humor) and solid ocular tissue samples. A pre-study standard curve was analyzed to determine the specificity, range, and lower limit of quantitation of the method. Plasma and tissue homogenate study samples were extracted and analyzed. All the samples were treated identically to the standards.
(§5) One eight-point standard curve was used in each analytical batch. To be accepted, each batch must have had at least five of eight standards with accuracy within ±20% of nominal, except at the lower limit of quantification (LLOQ), where ±25% was acceptable.

[2] = Example 2 plasma concentrations and pharmacokinetics after topical ocular, subcutaneous, intravitreal administration; format: in vivo, male New Zealand White rabbits
Description: as §1, §2
New Zealand White rabbits weighing 2.5 to 3.5 kg were used on this study. Rabbits were housed one per cage. Animals were not fasted and only healthy animals with no ocular illness were used. Two rabbits per group were sacrificed at each of four ocular tissue sampling time points for a total of eight rabbits per group.
as §3
Each blood sample was collected on Day 3 post dose at pre-determined time points from the rabbits via an ear vessel and placed into chilled polypropylene tubes containing sodium heparin as an anticoagulant. Samples were spun by centrifuge at 4° C. and 3,000× g for 5 minutes. Samples were maintained chilled throughout processing. Each plasma sample was placed on dry ice and stored in a freezer at −60° C. to −80° C. pending bioanalysis.
as §4, §5
Pharmacokinetic parameters were calculated from the time course of the plasma concentration. The maximum plasma concentration (Cmax) and time to the maximum plasma drug concentration (Tmax) were the observed values for each concentration-time profiles. The area under the plasma drug concentration-time curve (AUClast, with last being from time 0 to the last quantifiable point) was calculated using the trapezoidal formula. The mean residence time MRTlast was calculated as a ratio of AUMClast (area under the first movement curve) to AUClast.

[3] = Group 1 (topical ocular 1.2 mg/eye), 0.5 hr
[4] = Group 1 (topical ocular 1.2 mg/eye), 1.0 hr
[5] = Group 1 (topical ocular 1.2 mg/eye), 2.0 hr
[6] = Group 1 (topical ocular 1.2 mg/eye), 4.0 hr
[7] = Group 2 (subcutaneous 5 mg/kg/dose, solution), 0.5 hr
[8] = Group 2 (subcutaneous 5 mg/kg/dose, solution), 1.0 hr
[9] = Group 2 (subcutaneous 5 mg/kg/dose, solution), 2.0 hr
[10] = Group 2 (subcutaneous 5 mg/kg/dose, solution), 4.0 hr, BLOQ = below 0.2 ng/mL
[11] = Group 4 (intravitreal 2.5 mg/eye, solution), 6.0 hr
[12] = Group 4 (intravitreal 2.5 mg/eye, solution), 24 hr
[13] = Group 4 (intravitreal 2.5 mg/eye, solution), 48 hr
[14] = Group 1: topical ocular 1.2 mg/eye (~0.7 mg/kg/dose), 15% HPβCD + 1% dextrose solution
[15] = Group 1: topical ocular 1.2 mg/eye (~0.7 mg/kg/dose), 15% HPβCD + 1% dextrose, 0.50 hr
[16] = Group 1: topical ocular 1.2 mg/eye (~0.7 mg/kg/dose), 15% HPβCD + 1% dextrose, 1.0 hr
[17] = Group 1: topical ocular 1.2 mg/eye (~0.7 mg/kg/dose), 15% HPβCD + 1% dextrose, 2.0 hr
[18] = Group 1: topical ocular 1.2 mg/eye (~0.7 mg/kg/dose), 15% HPβCD + 1% dextrose, 4.0 hr
[19] = Group 2: subcutaneous 5 mg/kg/dose, 15% HPβCD + 1% dextrose solution
[20] = Group 2: subcutaneous 5 mg/kg/dose, 15% HPβCD + 1% dextrose solution, 0.25 hr
[21] = Group 2: subcutaneous 5 mg/kg/dose, 15% HPβCD + 1% dextrose solution, 0.50 hr
[22] = Group 2: subcutaneous 5 mg/kg/dose, 15% HPβCD + 1% dextrose solution, 1.0 hr
[23] = Group 2: subcutaneous 5 mg/kg/dose, 15% HPβCD + 1% dextrose solution, 2.0 hr
[24] = Group 2: subcutaneous 5 mg/kg/dose, 15% HPβCD + 1% dextrose solution, 4.0 hr
[25] = Group 2: subcutaneous solution, normalized by nominal dose 5 mg/kg
[26] = Group 4: intravitreal 2.5 mg/eye (~1.55 mg/kg), 10% HPβCD + 2% dextrose solution
[27] = Group 4: intravitreal 2.5 mg/eye (~1.55 mg/kg), 10% HPβCD + 2% dextrose solution, 1.0 hr
[28] = Group 4: intravitreal 2.5 mg/eye (~1.55 mg/kg), 10% HPβCD + 2% dextrose solution, 3.0 hr
[29] = Group 4: intravitreal 2.5 mg/eye (~1.55 mg/kg), 10% HPβCD + 2% dextrose solution, 6.0 hr
[30] = Group 4: intravitreal 2.5 mg/eye (~1.55 mg/kg), 10% HPβCD + 2% dextrose solution, 24.0 hr
[31] = Group 4: intravitreal 2.5 mg/eye (~1.55 mg/kg), 10% HPβCD + 2% dextrose solution, 48.0 hr
[32] = Group 4: intravitreal 2.5 mg/eye (~1.55 mg/kg), 10% HPβCD + 2% dextrose solution, 72.0 hr
[33] = Group 4: intravitreal solution, normalized by nominal dose 1.55 mg/kg

## COC(=O)N[C@@H](Cc1ccccc1)C(=O)N[C@@H](Cc1ccc(NS(=O)(=O)O)cc1)c1csc(-c2cccs2)n1 [Compound 1 sodium salt]
[1]; [3]
  aqueous humor Average Conc.: 45.8 ng/g
  aqueous humor Conc. OS: 1.78 ng/mL
[1]; [4]
  aqueous humor Average Conc.: 15.0 ng/g
  aqueous humor Conc. OD: 4.03 ng/mL and 3.05 ng/mL
  aqueous humor Conc. OS: 3.55 ng/mL
[1]; [5]
  aqueous humor Average Conc.: 31.6 ng/g
  aqueous humor Conc. OD: 2.46 ng/mL
  aqueous humor Conc. OS: 14.5 ng/mL and 15.8 ng/mL
[1]; [6]
  aqueous humor Average Conc.: 8.24 ng/g
  aqueous humor Conc. OD: 5.48 ng/mL and 7.78 ng/mL
[1]; Group 1: topical ocular 0.70 mg/kg/dose
  Average Peak Concentration, Aqueous Humor: 45.8 ng/g
[1]; [7]
  aqueous humor Average Conc.: 26.1 ng/g
  aqueous humor Conc. OD: 23.5 ng/mL and 18.0 ng/mL
  aqueous humor Conc. OS: 24.6 ng/mL and 38.2 ng/mL
[1]; [8]
  aqueous humor Average Conc.: 3.30 ng/g
  aqueous humor Conc. OD: 4.51 ng/mL and 3.22 ng/mL
  aqueous humor Conc. OS: 1.84 ng/mL and 3.63 ng/mL
[1]; [9]
  aqueous humor Average Conc.: 0.72 ng/g
  aqueous humor Conc. OD: 0.581 ng/mL and 0.453 ng/mL
  aqueous humor Conc. OS: 0.498 ng/mL
[1]; [10]
  aqueous humor Conc. OD: BLOQ
  aqueous humor Conc. OS: BLOQ
[1]; Group 2: subcutaneous 5 mg/kg/dose
  Average Peak Concentration, Aqueous Humor: 26.1 ng/g
[1]; [11]
  aqueous humor Average Conc.: 80575 ng/g
  aqueous humor Conc. OD: 90600 ng/mL and 75300 ng/mL
  aqueous humor Conc. OS: 77100 ng/mL and 79300 ng/mL
[1]; [12]
  aqueous humor Average Conc.: 9000 ng/g
  aqueous humor Conc. OD: 4700 ng/mL
  aqueous humor Conc. OS: 5190 ng/mL and 6810 ng/mL
[1]; [13]
  aqueous humor Average Conc.: 1963 ng/g
  aqueous humor Conc. OD: 2040 ng/mL and 2330 ng/mL
  aqueous humor Conc. OS: 1510 ng/mL and 1970 ng/mL
[1]; Group 4 (intravitreal 2.5 mg/eye, solution), 72 hr
  aqueous humor Average Conc.: 34.5 ng/g
[1]; Group 4: intravitreal 1.55 mg/kg/dose
  Average Peak Concentration, Aqueous Humor: 80575 ng/g
[1]; intravitreal administration, up to forty-eight hours post-administration
  aqueous humor concentrations vs free acid (FIG. 8): higher aqueous humor concentrations
[1]; subcutaneous administration, early time points
  aqueous humor concentrations vs free acid (FIG. 7): increased aqueous humor concentrations as compared to the free acid
[1]; topical ocular administration, over four hours
  aqueous humor concentrations (FIG. 6): below 50 ng/g
[2]; [14]
  plasma AUClast (± SE): 11.8 ± 5.70 ng·h/mL and 11.8 ng·h/mL
  plasma Cmax (± SE): 7.48 ± 5.53 ng/mL and 7.48 ng/mL
  plasma MRTlast: 2.98 h
  plasma tmax: 4.00 h
[2]; Group 1: topical ocular 1.2 mg/eye (~0.7 mg/kg/dose), 15% HPβCD + 1% dextrose solution, listed as Compound 1 (sodium salt)
  plasma tmax: 4 h
[2]; [15]
  plasma Average conc.: 3.03 ng/mL
  plasma Conc., individual rabbit: 3.84 ng/mL and 2.21 ng/mL
[2]; [16]
  plasma Average conc.: 1.46 ng/mL
  plasma Conc., individual rabbit: 1.28 ng/mL and 1.63 ng/mL
[2]; [17]
  plasma Average conc.: 1.14 ng/mL
  plasma Conc., individual rabbit: 2.04 ng/mL and 0.241 ng/mL
[2]; [18]
  plasma Average conc.: 7.48 ng/mL
  plasma Conc., individual rabbit: 13.0 ng/mL and 1.95 ng/mL
[2]; Group 1: topical ocular, normalized by nominal dose 0.7 mg/kg
  plasma AUClast, dose normalized: 16.8 ± 8.15 kg·ng·h/mL/mg and 16.8 kg·ng·h/mL/mg
[2]; [19]
  plasma AUClast (± SE): 1555 ± 195 ng·h/mL and 1555 ng·h/mL
  plasma AUC∞: 1560 ng·h/mL
  plasma Cmax (± SE): 1525 ± 115 ng/mL and 1525 ng/mL
  plasma MRTlast: 0.87 h
  plasma t1/2: 0.47 h
  plasma tmax: 0.25 h
[2]; [20]
  plasma Average conc.: 1525 ng/mL
  plasma Conc., individual rabbit: 1640 ng/mL and 1410 ng/mL
[2]; [21]
  plasma Average conc.: 1097 ng/mL
  plasma Conc., individual rabbit: 883 ng/mL and 1310 ng/mL
[2]; [22]
  plasma Average conc.: 646 ng/mL
  plasma Conc., individual rabbit: 664 ng/mL and 628 ng/mL
[2]; [23]
  plasma Average conc.: 180 ng/mL
  plasma Conc., individual rabbit: 55.5 ng/mL and 305 ng/mL
[2]; [24]
  plasma Average conc.: 7.76 ng/mL
  plasma Conc., individual rabbit: 7.98 ng/mL and 7.53 ng/mL
[2]; [25]
  plasma AUClast, dose normalized: 311 ± 38.9 kg·ng·h/mL/mg and 311 kg·ng·h/mL/mg
  plasma AUC∞, dose normalized: 312 kg·ng·h/mL/mg
[2]; [26]
  plasma AUClast (± SE): 953 ± 91.1 ng·h/mL and 953 ng·h/mL
  plasma AUC∞: 956 ng·h/mL
  plasma Cmax (± SE): 39.8 ± 2.30 ng/mL and 39.8 ng/mL
  plasma MRTlast: 15.1 h
  plasma t1/2: 8.08 h
  plasma tmax: 3.00 h
[2]; [27]
  plasma Average conc.: 32.3 ng/mL
  plasma Conc., individual rabbit: 33.2 ng/mL and 31.3 ng/mL
[2]; [28]
  plasma Average conc.: 39.8 ng/mL
  plasma Conc., individual rabbit: 37.5 ng/mL and 42.1 ng/mL
[2]; [29]
  plasma Average conc.: 36.8 ng/mL
  plasma Conc., individual rabbit: 44.3 ng/mL and 29.3 ng/mL
[2]; [30]
  plasma Average conc.: 16.9 ng/mL
  plasma Conc., individual rabbit: 19.0 ng/mL and 14.7 ng/mL
[2]; [31]
  plasma Average conc.: 2.58 ng/mL
  plasma Conc., individual rabbit: 2.70 ng/mL and 2.45 ng/mL
[2]; [32]
  plasma Average conc.: 0.27 ng/mL
  plasma Conc., individual rabbit: 0.215 ng/mL and 0.333 ng/mL
[2]; Group 4: intravitreal 2.5 mg/eye (~1.55 mg/kg), 10% HPβCD + 2% dextrose solution, listed as Compound 1 (sodium salt)
  plasma tmax: 3 h
[2]; [33]
  plasma AUClast, dose normalized: 615 ± 58.8 kg·ng·h/mL/mg and 615 kg·ng·h/mL/mg
  plasma AUC∞, dose normalized: 617 kg·ng·h/mL/mg
[2]; intravitreal administration
  mean plasma AUClast between the two dose formulations: comparable
  mean plasma Cmax, sodium salt solution compared to free acid suspension: approximately 2 fold
[2]; intravitreal administration, up to twenty-four hours post-administration
  plasma concentrations vs free acid (FIG. 5): slightly higher plasma concentrations as compared to the free acid
[2]; subcutaneous administration
  mean plasma AUClast, sodium salt solution compared to free acid suspension: approximately 2 fold
  mean plasma Cmax, sodium salt solution compared to free acid suspension: approximately 3 fold
[2]; subcutaneous administration, postdose
  mean plasma Tmax: 0.25 h
[2]; subcutaneous administration, up to one hour post-administration
  plasma concentrations vs free acid (FIG. 4): generally increased plasma concentrations as compared to the free acid
[2]; topical ocular administration, 4 hour mark
  plasma concentration (FIG. 3): increase in Compound 1 plasma concentration
